From paper PMC9545004, “Transglutaminase 2 affinity and enzyme‐substrate intermediate stability as determining factors for T‐cell responses to gluten peptides in celiac disease” (European Journal of Immunology, 2022)
Like-named read-outs stand apart in the source and are kept apart here. One block for each compound: values may come before it.

Columns and labels:
[1] = system: TG2:gluten complexes uptake by TG2-specific B cells (A20, BCR 679-14-E06); test: Inhibition by primary amines of TG2:gluten complex uptake by TG2-specific B cells, flow cytometry; type: cell-based, Murine A20 B lymphoma; recombinant human TG2; conditions: for IC50: B-cell
Excerpt: (§1) Murine A20 B lymphoma cells engineered to express either the celiac patient‐derived TG2‐specific BCR 679‐14‐E06 or the non‐TG2‐specific BCR 693‐2‐F02 as human IgD are previously described. For B‐cell/T‐cell collaboration assays, we used A20 BCR transfectants also transduced to express HLA‐DQ2.5 [27]. Murine BW58α^–β^– cells were retrovirally transduced to express human CD4 as well as the celiac patient‐derived gluten‐specific TCR from a DQ2.5‐glia‐γ1‐reactive T‐cell clone (TCC 4.32) as previously described. The generation of TCR transfectants expressing DQ2.5‐glia‐α2‐reactive TCR (TCC 364.14) and DQ2.5‐glia‐ω2‐reactive TCR (clone 737.30) have been described previously.
B‐cell uptake of gluten peptides was measured essentially as previously described. The following 9‐mer peptides were compared: FITC‐α2, FITC‐ω2, FITC‐γ1, and FITC‐γ3. In brief, A20 cells (300 000/well) expressing TG2‐specific (679‐14‐E06) or non‐TG2 specific BCR (693‐2‐F02) were incubated with recombinant TG2 (final 3 µg/mL), 5 µM FITC peptide, and 2 mM CaCl2 in RPMI at a final volume of 50 µL. Following incubation at 37°C, the TG2 enzymatic activity was quenched by the addition of 100 µL 2 mM EDTA/RPMI at specific timepoints. Cells were washed, fixed in 2% methanol‐free formaldehyde (Invitrogen), resuspended in 2% fetal calf serum (FCS)/PBS, and analyzed by flow cytometry (Attune NxT Flow Cytometer, Thermo Scientific). For each peptide, a delta MFI was calculated by subtracting MFI from non‐TG2 specific A20 cell (unspecific binding) from MFI of TG2‐specific A20 cells. Delta MFI was normalized for each experiment by dividing by the highest delta value per experiment. To assess the contribution and uptake of isopeptide‐linked TG2:gluten complexes, TG2 (3 µg/mL) and FITC‐labelled peptides (5 µM) were preincubated in RPMI with 2 mM CaCl2 at 37°C for 30 min before addition of A20 cells followed by 30 min incubation at 37°C. To examine the effect of TG2 secondary substrates on peptide uptake, the primary amines spermine (Sigma–Aldrich) and biotinylated cadaverine (5‐biotinamido‐pentylamine; 5‐BP, Pierce) were added to the reaction mixture (0.1–1000 µM final concentration), followed by 10 min incubation at 37°C and flow cytometry analysis. The dose‐response curve fitting to find IC50 was done using the “[Inhibitor] vs. response” equation in GraphPad Prism 8.3.0. Of note, the presence of Lysine HCl in RPMI medium represents an experimental constant in our assays that is not accounted for when calculating the competitive effect of amine.

[2] = system: TCR-transfectant cells specific for DQ2.5-glia-ω2; test: Inhibition by primary amines of activation of DQ2.5-glia-ω2-specific T cells by TG2-specific B cells, IL-2 ELISA; type: cell-based; conditions: for IC50: 5 µM N-ω-gliadin 34-mer, TG2, CaCl2, amine 0-1000 µM, IL-2 ELISA
Excerpt: as §1
The B‐cell/T‐cell collaboration assays were set up as previously described. To compare the uptake and presentation of different gluten peptides to T cells, A20 cells (5 mill/mL) expressing the TG2‐specific BCR (679‐14‐E06) and HLA DQ2.5 were incubated with recombinant TG2 (final 3 µg/mL) and varying amounts of N‐α‐gliadin 20‐mer, N‐ω‐gliadin 19‐mer, or N‐γ‐gliadin 21‐mer in RPMI supplemented with 2 mM CaCl2. After a 30 min incubation at 37°C the cells were washed with 1% FCS/RPMI and resuspended in 5% FCS/RPMI to give a final 1.5 million cells/mL (150 000/well) followed by 2 h incubation at 37°C. Next, TCR‐transfectant cells specific for either DQ2.5‐glia‐α2, DQ2.5‐glia‐ω2, or DQ2.5‐glia‐γ1 were added (25 000/well), followed by overnight incubation at 37°C. The next day, IL‐2 concentration was measured in the culture supernatant by ELISA as previously described. The responsiveness of different TCR transfectants was assessed in the same way, but without the 30 min incubation with TG2, and using the synthetic deamidated peptides (D‐α‐gliadin 20‐mer, D‐ω‐gliadin 17‐mer, and D‐γ‐gliadin 21‐mer). To assess how TG2 secondary substrate affects peptide uptake and presentation to T cells, TG2‐specific A20 cells expressing DQ2.5 were incubated with TG2, CaCl2, 5 µM N‐ω‐gliadin 34‐mer, or 5 µM N‐α‐gliadin 33‐mer in the presence of primary amines at increasing concentrations (0‐1000 µM), before the addition of TCR‐transfectant cells specific for the DQ2.5‐glia‐α2 or DQ2.5‐glia‐ω2 epitopes. The dose‐response curve fitting to find IC50 was done using the “[Inhibitor] vs. response” equation in GraphPad Prism 8.3.0. To examine whether primary amines directly affect the B cells, TG2‐specific A20 cell expressing DQ2.5 were incubated with primary amines for 30 min and washed, before addition of 2 µM D‐ω‐gliadin 34‐mer, followed by incubation with DQ2.5‐glia‐ω2 TCR transfectants.

[3] = 10 min, inhibition of FITC-α2 (5 µM) uptake, TG2 3 µg/mL, 2 mM CaCl2, RPMI, 37°C 10 min, Figure 4, read-out: IC50
[4] = 10 min, inhibition of FITC-α2 (5 µM) uptake, TG2 3 µg/mL, 2 mM CaCl2, RPMI, 37°C 10 min, mean, read-out: IC50
[5] = 10 min, inhibition of FITC-α2 (5 µM) uptake, TG2 3 µg/mL, 2 mM CaCl2, RPMI, 37°C 10 min, replicate Figure S4 A, read-out: IC50
[6] = 10 min, inhibition of FITC-α2 (5 µM) uptake, TG2 3 µg/mL, 2 mM CaCl2, RPMI, 37°C 10 min, replicate Figure S4 B, read-out: IC50
[7] = 10 min, inhibition of FITC-ω2 (5 µM) uptake, TG2 3 µg/mL, 2 mM CaCl2, RPMI, 37°C 10 min, Figure 4, read-out: IC50
[8] = 10 min, inhibition of FITC-ω2 (5 µM) uptake, TG2 3 µg/mL, 2 mM CaCl2, RPMI, 37°C 10 min, mean (spermine: Figure S4 B not included), read-out: IC50
[9] = 10 min, inhibition of FITC-ω2 (5 µM) uptake, TG2 3 µg/mL, 2 mM CaCl2, RPMI, 37°C 10 min, replicate Figure S4 A, read-out: IC50
[10] = FITC 9-mer native gluten peptides, average IC50 values, Table S1, read-out: IC50, inhibition of FITC-9-mer peptide uptake (average values)
[11] = inhibition of FITC-α2 uptake, Figure 4
[12] = inhibition of FITC-α2 uptake, mean
[13] = inhibition of FITC-α2 uptake, replicate Figure S4 B
[14] = inhibition of FITC-ω2 uptake, Figure 4
[15] = inhibition of FITC-ω2 uptake, mean
[16] = inhibition of FITC-ω2 uptake, replicate Figure S4 A
[17] = inhibition of FITC-ω2 uptake, replicate Figure S4 B
[18] = logIC50, inhibition of FITC-α2 uptake, Figure 4
[19] = logIC50, inhibition of FITC-α2 uptake, mean
[20] = logIC50, inhibition of FITC-α2 uptake, replicate Figure S4 A
[21] = logIC50, inhibition of FITC-α2 uptake, replicate Figure S4 B
[22] = logIC50, inhibition of FITC-ω2 uptake, Figure 4
[23] = logIC50, inhibition of FITC-ω2 uptake, mean
[24] = logIC50, inhibition of FITC-ω2 uptake, replicate Figure S4 A
[25] = logIC50, inhibition of FITC-ω2 uptake, replicate Figure S4 B
[26] = DQ2.5-glia-ω2, replicate Figure S5A
[27] = DQ2.5-glia-ω2, replicate Figure S5B
[28] = logIC50, DQ2.5-glia-ω2, Figure 5
[29] = logIC50, DQ2.5-glia-ω2, replicate Figure S5A
[30] = logIC50, DQ2.5-glia-ω2, replicate Figure S5B
[31] = logIC50, inhibition of FITC-γ1 uptake, Figure 4
[32] = logIC50, inhibition of FITC-γ1 uptake, mean
[33] = logIC50, inhibition of FITC-γ1 uptake, replicate Figure S4 C

IC50 [1, 3]: 22.7 µM
IC50 [1, 4]: 42 µM
IC50 [1, 5]: 57.9 µM
IC50 [1, 6]: 45.4 µM
IC50 [1, 7]: 20.7 µM
IC50 [1, 8]: 72 µM
IC50 [1, 9]: 130 µM
IC50 ([1]; 10 min, inhibition of FITC-ω2 (5 µM) uptake, TG2 3 µg/mL, 2 mM CaCl2, RPMI, 37°C 10 min, replicate Figure S4 B (for spermine not included in the mean), read-out: IC50): 65.6 µM
IC50 [1, 10]: 26 to 72 µM
IC50 ([2]; DQ2.5-glia-ω2, Figure 5): 60.7 µM
IC50 ([2]; DQ2.5-glia-ω2, mean): 27 µM
IC50 [2, 26]: 13.6 µM
IC50 [2, 27]: 6.79 µM
SMILES: NCCCCCNC(=O)CCCC[C@@H]1SC[C@@H]2NC(=O)N[C@@H]21 [5-BP, 5‐biotinamido‐pentylamine]
logIC50 [1, 11]: 1.36
logIC50 [1, 12]: 1.59
logIC50 [1, 13]: 1.66
logIC50 [1, 14]: 1.32
logIC50 [1, 15]: 1.75
logIC50 [1, 16]: 2.11
logIC50 [1, 17]: 1.82
log 95% CI lower limit [1, 18]: 1.04
log 95% CI upper limit [1, 18]: 1.71
log 95% CI lower limit [1, 19]: 1.35
log 95% CI upper limit [1, 19]: 1.85
log 95% CI lower limit [1, 20]: 1.52
log 95% CI upper limit [1, 20]: 2.00
log 95% CI lower limit [1, 21]: 1.50
log 95% CI upper limit [1, 21]: 1.82
log 95% CI lower limit [1, 22]: 1.09
log 95% CI upper limit [1, 22]: 1.57
log 95% CI lower limit [1, 23]: 1.48
log 95% CI upper limit [1, 23]: 2.03
log 95% CI lower limit [1, 24]: 1.86
log 95% CI upper limit [1, 24]: 2.38
log 95% CI lower limit [1, 25]: 1.50
log 95% CI upper limit [1, 25]: 2.14
logIC50 ([2]; DQ2.5-glia-ω2, Figure 5): 1.78
logIC50 ([2]; DQ2.5-glia-ω2, mean): 1.25
logIC50 [2, 26]: 1.13
logIC50 [2, 27]: 0.832
log 95% CI lower limit [2, 28]: 1.52
log 95% CI upper limit [2, 28]: 2.04
log 95% CI lower limit ([2]; logIC50, DQ2.5-glia-ω2, mean): 1.23
log 95% CI upper limit ([2]; logIC50, DQ2.5-glia-ω2, mean): 1.57
log 95% CI lower limit [2, 29]: 0.940
log 95% CI upper limit [2, 29]: 1.32
log 95% CI upper limit [2, 30]: 1.36

IC50 [1, 3]: 29.3 µM
IC50 [1, 4]: 66.1 µM
IC50 [1, 5]: 47.6 µM
IC50 [1, 6]: 121 µM
IC50 ([1]; 10 min, inhibition of FITC-γ1 (5 µM) uptake, TG2 3 µg/mL, 2 mM CaCl2, RPMI, 37°C 10 min, Figure 4, read-out: IC50): 45.3 µM
IC50 ([1]; 10 min, inhibition of FITC-γ1 (5 µM) uptake, TG2 3 µg/mL, 2 mM CaCl2, RPMI, 37°C 10 min, mean, read-out: IC50): 31.9 µM
IC50 ([1]; 10 min, inhibition of FITC-γ1 (5 µM) uptake, TG2 3 µg/mL, 2 mM CaCl2, RPMI, 37°C 10 min, replicate Figure S4 C, read-out: IC50): 18.7 µM
IC50 [1, 7]: 14 µM
IC50 [1, 8]: 26.1 µM
IC50 [1, 9]: 38.2 µM
IC50 [1, 10]: 26 to 72 µM
IC50 ([2]; DQ2.5-glia-ω2, Figure 5): 55.1 µM
IC50 ([2]; DQ2.5-glia-ω2, mean): 27.5 µM
IC50 [2, 26]: 18.4 µM
IC50 [2, 27]: 9.13 µM
SMILES: NCCCNCCCCNCCCN [spermine]
inhibition of FITC-9-mer uptake, in words ([1]; TG2 3 µg/mL, FITC peptide 5 µM, 2 mM CaCl2, 37°C 10 min, Figure 4, Figure S4): effectively inhibited uptake
logIC50 [1, 11]: 1.47
logIC50 [1, 12]: 1.74
logIC50 ([1]; inhibition of FITC-α2 uptake, replicate Figure S4 A): 1.68
logIC50 [1, 13]: 2.08
logIC50 ([1]; inhibition of FITC-γ1 uptake, Figure 4): 1.66
logIC50 ([1]; inhibition of FITC-γ1 uptake, mean): 1.46
logIC50 ([1]; inhibition of FITC-γ1 uptake, replicate Figure S4 C): 1.27
logIC50 [1, 14]: 1.15
logIC50 [1, 15]: 1.36
logIC50 [1, 16]: 1.58
logIC50 [1, 17]: 16.4
log 95% CI lower limit [1, 18]: 0.911
log 95% CI upper limit [1, 18]: 2.19
log 95% CI lower limit [1, 19]: 1.31
log 95% CI upper limit [1, 19]: 2.23
log 95% CI lower limit [1, 20]: 1.49
log 95% CI upper limit [1, 20]: 1.864
log 95% CI lower limit [1, 21]: 1.53
log 95% CI upper limit [1, 21]: 2.63
log 95% CI lower limit [1, 31]: 1.20
log 95% CI upper limit [1, 31]: 2.08
log 95% CI lower limit [1, 32]: 1.02
log 95% CI upper limit [1, 32]: 2.0
log 95% CI lower limit [1, 33]: 0.84
log 95% CI upper limit [1, 33]: 1.92
log 95% CI lower limit [1, 22]: 0.93
log 95% CI upper limit [1, 22]: 1.39
log 95% CI lower limit [1, 23]: 1.16
log 95% CI upper limit [1, 23]: 1.59
log 95% CI lower limit [1, 24]: 1.38
log 95% CI upper limit [1, 24]: 1.79
logIC50 ([2]; DQ2.5-glia-ω2, Figure 5): 1.74
logIC50 ([2]; DQ2.5-glia-ω2, mean): 1.32
logIC50 [2, 26]: 1.26
logIC50 [2, 27]: 0.960
log 95% CI lower limit [2, 28]: 1.50
log 95% CI upper limit [2, 28]: 1.99
log 95% CI lower limit ([2]; logIC50, DQ2.5-glia-ω2, mean): 1.04
log 95% CI upper limit ([2]; logIC50, DQ2.5-glia-ω2, mean): 1.58
log 95% CI lower limit [2, 29]: 1.03
log 95% CI upper limit [2, 29]: 1.50
log 95% CI lower limit [2, 30]: 0.610
log 95% CI upper limit [2, 30]: 1.26
